Assay results reported in paper PMC11026381, “Late-stage meta-C–H alkylation of pharmaceuticals to modulate biological properties and expedite molecular optimisation in a single step” (Nature Communications, 2024).
Converted amounts (≈) assume the structure as drawn.

Assay: Metabolic stability in human liver microsomes (CLint HLM)
Type: in vitro ADME
Settings: both sexes, human, liver microsomes, pH 7.4, measured on the labelled compound itself, 1 mg/mL microsomal protein, 1 mM NADPH, 37 °C, n = 1, read-out: CLint HLM (intrinsic clearance in human liver microsomes)
Procedure: Metabolic stability in human liver microsomes (CLint HLM)
Human liver microsomes were defrosted on ice and diluted to 1 mg/mL of microsomal protein in phosphate buffer (0.1 M, pH 7.4). Compounds at 1 μM were incubated with the liver microsome suspensions and 1 mM NADPH at 37 °C in a 96-well plate. At 0.5, 5, 10, 15, 20 and 30 min, aliquots of 30 μL were transferred to a 96-well plate containing 120 μL MeCN. This plate was centrifuged for 20 min and supernatant was removed and diluted with H2O (1:1) before analysis by LC-MS/MS (Waters Xevo-TQS). Peak areas were determined from extracted ion chromatograms, and the in vitro intrinsic clearance (in vitro CLint, in μL/min/mg microsomal protein) of parent compound was calculated from the slope in the regression analysis of the natural logarithm of parent concentration vs. time curve.
Human Liver Microsomes (InVitroCYPTM 150-Donor, Mixed Gender) were harvested and supplied by BioIVT (Product No. X008070, Lot No. QQY). […]
(§1) The modulation of pharmaceutically relevant properties on meta-C–H alkylation is shown below in Supplementary Fig. 68, with a selection of physicochemical and DMPK data including solubility , LogD, human plasma protein binding (Prot. Bind.) and intrinsic clearance (CLint) in human liver microsomes (HLM) or rat hepatocytes (Rat Hep.) .

Row | Structure (SMILES) | microsomal CLint at 1 μM
1 | CCN(Cc1ccccc1)C(=O)Cn1c(=O)n(C)c2cnc(-c3ccccc3)nc21 [4e, emapunil, reference compound] | 218 µL/min/mg
2 | CCOC(=O)C1(c2cccc(-c3ncc4c(n3)n(CC(=O)N(CC)Cc3ccccc3)c(=O)n4C)c2)CCC1 [5e] | > 300 µL/min/mg
3 | CCOC(=O)Cc1cccc(-c2ncc3c(n2)n(CC(=O)N(CC)Cc2ccccc2)c(=O)n3C)c1 [6a] | > 300 µL/min/mg
4 | CCOC(=O)C(C)(C)c1cccc(-c2ncc3c(n2)n(CC(=O)N(CC)Cc2ccccc2)c(=O)n3C)c1 [6b] | > 300 µL/min/mg

Same assay, conditions: measured on the labelled compound itself; 1 μM, 1 mg/mL microsomal protein, 1 mM NADPH, 37 °C, n = 1

Row | Structure (SMILES) | CLint HLM (intrinsic clearance in human liver microsomes)
5 | CCOC(=O)C1(c2cccc(-c3ncc4c(n3)n(CC(=O)N(CC)Cc3ccccc3)c(=O)n4C)c2)CCC1 [5e] | 5.5 µL/min/mg
6 | CCOC(=O)Cc1cccc(-c2ncc3c(n2)n(CC(=O)N(CC)Cc2ccccc2)c(=O)n3C)c1 [6a] | < 3.0 µL/min/mg
7 | CCOC(=O)C(C)(C)c1cccc(-c2ncc3c(n2)n(CC(=O)N(CC)Cc2ccccc2)c(=O)n3C)c1 [6b] | 11.1 µL/min/mg

Assay: Fraction unbound in human plasma (Prot. Bind.), equilibrium dialysis
Type: in vitro ADME
Settings: 5 μM, dialysis at 37 °C for 18 hours, n = 1
From the text: (§2) 5. Pharmaceutically relevant properties modulation
(§3) Product analogues 5e, 6a-6k obtained after late-stage meta-C–H alkylation of the pharmaceutically active compound Emapunil (4e) were subjected to a range of fundamental in vitro drug discovery assays. To prevent hydrolysis of ester groups present on these analogues during biological testing (in order to compare the clearance and metabolic stability between these drug derivatives), their corresponding free acids 5e’, 6a’-6k’ were synthesised (see page S54) and subjected to similar assays.
(§4) The experimental methods used for these physicochemical & drug metabolism and pharmacokinetics (DMPK) assays are described below 11. […]
Fraction unbound in human plasma (Prot. Bind.)
Equilibrium dialysis of compounds was used to assess the fraction unbound in human plasma. Stock solutions of compounds dissolved in DMSO were pooled into cassettes with up to 10 compounds in each cassette with a concentration of 1 mM. The pooled stock solutions were diluted in plasma to a compound concentration of 5 μM. Warfarin, propranolol and metoprolol were used as reference compounds in each run. The equilibrium dialysis device (RED, Thermo Fischer Scientific Inc., Rockford, USA) was used for dialysis against phosphate buffer (pH 7.4) at 37 °C for 18 hours. Calibration curves ranging from 0.001 to 7 μM were made using aliquots of the 7 μM spiked plasma pools that were transferred to a new plate followed by serial dilutions with blank plasma. Calibration curve samples and dialysis samples were precipitated with MeCN and after centrifugation, supernatants were removed and analysed using LC-MS/MS (Waters Xevo-TQS). Fraction unbound in the incubation was calculated as the concentration in the media buffer sample divided by the concentration in the plasma sample. The fraction unbound was reported as the median value.

Row | Structure (SMILES) | Prot. Bind. (% free), human plasma protein binding
8 | CCN(Cc1ccccc1)C(=O)Cn1c(=O)n(C)c2cnc(-c3ccccc3)nc21 [4e, emapunil, reference compound] | 0.8 % free
9 | CCOC(=O)C1(c2cccc(-c3ncc4c(n3)n(CC(=O)N(CC)Cc3ccccc3)c(=O)n4C)c2)CCC1 [5e] | 0.4 % free
10 | CCOC(=O)Cc1cccc(-c2ncc3c(n2)n(CC(=O)N(CC)Cc2ccccc2)c(=O)n3C)c1 [6a] | 12.0 % free
11 | CCOC(=O)C(C)(C)c1cccc(-c2ncc3c(n2)n(CC(=O)N(CC)Cc2ccccc2)c(=O)n3C)c1 [6b] | 0.8 % free

Same assay, conditions: 5 μM, dialysis at 37 °C for 18 hours, n = 1, listed as 5e’

Row | Structure (SMILES) | Prot. Bind. (% free), human plasma protein binding
12 | CCOC(=O)C1(c2cccc(-c3ncc4c(n3)n(CC(=O)N(CC)Cc3ccccc3)c(=O)n4C)c2)CCC1 [5e] | 2.0 % free

Same assay, conditions: 5 μM, dialysis at 37 °C for 18 hours, n = 1, listed as 6b’

Row | Structure (SMILES) | Prot. Bind. (% free), human plasma protein binding
13 | CCOC(=O)C(C)(C)c1cccc(-c2ncc3c(n2)n(CC(=O)N(CC)Cc2ccccc2)c(=O)n3C)c1 [6b] | 3.0 % free

Assay: Metabolic stability in male Han Wistar rat hepatocytes (CLint Rat Hep.)
Type: in vitro ADME
Settings: measured on the labelled compound itself; 1 μM, 10^6 viable cells/mL, 37 °C, n = 1
Procedure: Metabolic stability in male Han Wistar rat hepatocytes (CLint Rat Hep.) Hepatocyte metabolic stability was determined in accordance with the method described by Jacobson et al14. Cryopreserved hepatocytes at a concentration of 10 6 viable cells/mL were used. After thawing, hepatocytes were incubated for 10 min to warm to 37 °C, and compounds dissolved in MeCN were […]
incubation system was mixed and 20 μL aliquots were transferred at each time point to wells in a separate plate filled with 80 μL MeCN to stop the reaction. The quenching plate was then vortexed followed by centrifugation, and supernatants were analysed by LC-MS/MS (Waters Xevo-TQS). Peak areas were determined from extracted ion chromatograms, and the in vitro intrinsic clearance (in vitro CLint, in μL/min/10^6 cells) of parent compound was calculated from the slope in the regression analysis of the natural logarithm of parent concentration vs. time curve. Rat Hepatocytes (Cryosuspension, Male Wistar Hannover ) were harvested and s upplied by BioIVT (Product No. M00065, Lot No. DVO).
as §1

Row | Structure (SMILES) | CLint Rat Hep. (intrinsic clearance in rat hepatocytes)
14 | CCN(Cc1ccccc1)C(=O)Cn1c(=O)n(C)c2cnc(-c3ccccc3)nc21 [4e, emapunil, reference compound] | 164 μL/min/10^6
15 | CCOC(=O)C1(c2cccc(-c3ncc4c(n3)n(CC(=O)N(CC)Cc3ccccc3)c(=O)n4C)c2)CCC1 [5e] | > 300 μL/min/10^6
16 | CCOC(=O)Cc1cccc(-c2ncc3c(n2)n(CC(=O)N(CC)Cc2ccccc2)c(=O)n3C)c1 [6a] | > 300 μL/min/10^6
17 | CCOC(=O)C(C)(C)c1cccc(-c2ncc3c(n2)n(CC(=O)N(CC)Cc2ccccc2)c(=O)n3C)c1 [6b] | > 300 μL/min/10^6

Same assay, conditions: measured on the labelled compound itself; 1 μM, 10^6 viable cells/mL, 37 °C, n = 1; listed as 5e’

Row | Structure (SMILES) | CLint Rat Hep. (intrinsic clearance in rat hepatocytes)
18 | CCOC(=O)C1(c2cccc(-c3ncc4c(n3)n(CC(=O)N(CC)Cc3ccccc3)c(=O)n4C)c2)CCC1 [5e] | 15.9 μL/min/10^6

Same assay, conditions: measured on the labelled compound itself; 1 μM, 10^6 viable cells/mL, 37 °C, n = 1; listed as 6a’

Row | Structure (SMILES) | CLint Rat Hep. (intrinsic clearance in rat hepatocytes)
19 | CCOC(=O)Cc1cccc(-c2ncc3c(n2)n(CC(=O)N(CC)Cc2ccccc2)c(=O)n3C)c1 [6a] | 10.5 μL/min/10^6

Same assay, conditions: measured on the labelled compound itself; 1 μM, 10^6 viable cells/mL, 37 °C, n = 1; listed as 6b’

Row | Structure (SMILES) | CLint Rat Hep. (intrinsic clearance in rat hepatocytes)
20 | CCOC(=O)C(C)(C)c1cccc(-c2ncc3c(n2)n(CC(=O)N(CC)Cc2ccccc2)c(=O)n3C)c1 [6b] | 10.3 μL/min/10^6

Assay: Thermodynamic solubility, shake-flask approach, phosphate buffer pH 7.4
Type: physicochemical
Settings: aqueous buffer, thermodynamic from solid, pH 7.4, phosphate buffer 0.1 M, 20 °C, n = 1
From the text: as §2, §3
The experimental methods used for these physicochemical & drug metabolism and pharmacokinetics (DMPK) assays are described below 11.
This method measures the thermodynamic solubility of compounds based on a shake-flask approach12.
The nature of the solid state was unknown in these experiments and may be subject to variability. The compounds were dissolved in DMSO (30 μL, 10 mM) in glass vials, and were dried using a Genevac vacuum evaporator (Genevac Ltd, Ipswich, UK). When the samples were dry, 300 μL of phosphate buffer (0.1 M, pH 7.4) was added to the glass vials. The vials were put on an Edmund Bühler shaker (Edmund Bühler GmbH, Hechingen, Germany) at 20 °C for 18 hours. Samples were filtered through a Whatman GF/B 96-well filter and 20 μL of filtrated samples were transferred to separate wells in a plate containing 180 μL MeCN/H2O (1:1). Standards were prepared by diluting the 10 mM compound solutions with MeCN/H2O (1:1) to 200 μM. Three further dilution steps of 10 times were applied to both the samples and standards and they were all analy sed by LC-MS/MS (Waters Xevo-TQS). Solubility was determined using the integrated peak areas of the samples in the linear MS response range. […]

Row | Structure (SMILES) | solubility at 18 h
21 | CCN(Cc1ccccc1)C(=O)Cn1c(=O)n(C)c2cnc(-c3ccccc3)nc21 [4e, emapunil, reference compound] | 6 µM (≈ 2.41 µg/mL)
22 | CCOC(=O)C1(c2cccc(-c3ncc4c(n3)n(CC(=O)N(CC)Cc3ccccc3)c(=O)n4C)c2)CCC1 [5e] | 17 µM (≈ 8.97 µg/mL)
23 | CCOC(=O)Cc1cccc(-c2ncc3c(n2)n(CC(=O)N(CC)Cc2ccccc2)c(=O)n3C)c1 [6a] | 41 µM (≈ 20 µg/mL)
24 | CCOC(=O)C(C)(C)c1cccc(-c2ncc3c(n2)n(CC(=O)N(CC)Cc2ccccc2)c(=O)n3C)c1 [6b] | 8 µM (≈ 4.12 µg/mL)

Same assay, conditions: pH 7.4, phosphate buffer 0.1 M, 20 °C, n = 1

Row | Structure (SMILES) | solubility at 18 h
25 | CCOC(=O)C1(c2cccc(-c3ncc4c(n3)n(CC(=O)N(CC)Cc3ccccc3)c(=O)n4C)c2)CCC1 [5e] | > 1000 µM
26 | CCOC(=O)Cc1cccc(-c2ncc3c(n2)n(CC(=O)N(CC)Cc2ccccc2)c(=O)n3C)c1 [6a] | 924 µM (≈ 451 µg/mL)
27 | CCOC(=O)C(C)(C)c1cccc(-c2ncc3c(n2)n(CC(=O)N(CC)Cc2ccccc2)c(=O)n3C)c1 [6b] | > 1000 µM

Assay: Octanol/water partitioning (LogD), shake-flask method
Type: physicochemical
Settings: 1-octanol / phosphate buffer pH 7.4, 20 °C, n = 1
From the text: as §2, §3, §4
Octanol/water partitioning (LogD)
Partitioning of compounds between 1 -octanol and phosphate buffer (0.1 M, pH 7.4) at 20 °C were determined using a modified version of the shake -flask method described by Leo et al13. Compounds were dissolved in a 96 -well plate, in 400 μL octanol, and 400 μL of buffer was added to each well. The plate was vigorously stirred for 5 min and then put on an Edmund Bühler shaker (Edmund Bühler GmbH, Hechingen, Germany) at 20 °C for 18 hours. Aliquots of 5 μL octanol were transferred and diluted with 495 μL MeCN/H2O (1:1) and, to avoid contamination of the buffer, the rest of the octanol was removed before 150 μL of buffer samples were transferred. Octanol and buffer samples were diluted with MeCN/H2O (1:1) in four steps of 10 times to yield octanol samples diluted 10 2 to 106 times and buffer samples diluted 1 to 104 times. LC-MS/MS (Waters Xevo-TQS) was used for analysis, and distribution coefficient at pH 7.4 (LogD7.4) was calculated from the integrated peak areas of the samples in the linear MS response range. LogD7.4 results were reported as median values. […]

Row | Structure (SMILES) | LogD (octanol)
28 | CCOC(=O)C1(c2cccc(-c3ncc4c(n3)n(CC(=O)N(CC)Cc3ccccc3)c(=O)n4C)c2)CCC1 [5e] | 0.7
29 | CCOC(=O)Cc1cccc(-c2ncc3c(n2)n(CC(=O)N(CC)Cc2ccccc2)c(=O)n3C)c1 [6a] | -0.5
30 | CCOC(=O)C(C)(C)c1cccc(-c2ncc3c(n2)n(CC(=O)N(CC)Cc2ccccc2)c(=O)n3C)c1 [6b] | 0.5

Same assay, conditions: 1-octanol/phosphate buffer, pH 7.4, 1-octanol / phosphate buffer pH 7.4, 20 °C, n = 1

Row | Structure (SMILES) | logD
31 | CCN(Cc1ccccc1)C(=O)Cn1c(=O)n(C)c2cnc(-c3ccccc3)nc21 [4e, emapunil, reference compound] | 3.2
32 | CCOC(=O)C1(c2cccc(-c3ncc4c(n3)n(CC(=O)N(CC)Cc3ccccc3)c(=O)n4C)c2)CCC1 [5e] | 4.4
33 | CCOC(=O)Cc1cccc(-c2ncc3c(n2)n(CC(=O)N(CC)Cc2ccccc2)c(=O)n3C)c1 [6a] | 3.3
34 | CCOC(=O)C(C)(C)c1cccc(-c2ncc3c(n2)n(CC(=O)N(CC)Cc2ccccc2)c(=O)n3C)c1 [6b] | 4.2
